Measured values published in patent US8962600B2, “Neuroprotective compounds and their use” (The Medical College of Wisconsin, Inc., priority 2009, dated 2015).

Columns and labels:
[1] = tested on: subchronic MPTP mouse model; test: Subchronic MPTP mouse model, striatal neurotransmitters by HPLC-EC (Example 2); type: in vivo; conditions: for protection against subchronic MPTP-induced depletion of striatal dopac levels / protection against subchronic MPTP-induced depletion of striatal dopamine levels: MPTP 20 mg/kg i.p. 5 days
Method: The triphenylphosphonium-conjugated apocynin analogue, Mito-apocynin, acts as a potent mitochondrial targeted antioxidant (MTA). The nigrostriative dopaminergic neurons undergo destruction in a slow and progressive manner in idiopathic PD. In order to mimic this condition in a preclinical mouse model, a subchronic MPTP mouse model was developed. The mouse model used here was similar to that used in Example 3 below. Mice were treated with Mito-apocynin (3 mg/kg, oral gavage) for 1 day followed by subchronic MPTP (20 mg/kg, i.p.) administration for 5 days. Animals were sacrificed 7 days after the last dose of MPTP (Mito-apocynin was administered during the 7 days). Striatal neurotransmitters (dopamine, dopac) were analyzed by HPLC-EC. Similar experiments were performed with apocynin (20 mg/kg, oral gavage; lower doses were also tested but not effective).

[2] = tested on: BV2 microglial cells; test: LPS-induced iNOS activation (nitrite, Griess reagent) in BV2 microglial cells; type: cell-based, mouse; conditions: 30 min pretreatment, Griess reagent
Method: Two cell models of neuroinflammation were used to evaluate the anti-neuroinflammatory property of diapocynin including the mouse BV2 microglial cell line, as well as primary microglia isolated from mouse brains. BV2 cells were obtained from the American Tissue Culture Collection. BV2 cells were maintained in RPMI containing 10% FBS and 100 units of pen/strep at 37° C. and 5% CO2. For treatments, RPMI containing 2% FBS and 100 units of pen/strep was used.
Inducible nitric oxide synthase (iNOS or NOS2) activation was assessed by measuring nitrite levels using Griess reagent in a 96-well format (70-72). Each well contained 40,000 BV2 cells or 100,000 primary microglia. BV2 cells were cultured in 150 μl of RPMI containing 10% FBS and pen/strep, and the primary microglia were cultured in DMEM-F12 containing 10% FBS, pen/strep, sodium pyruvate (S/P), Q, and NEAAs. One day after culturing, cells were replaced with 150 μl of their respective complete media containing only 2% FBS. Both cell types were pretreated with diapocynin (10 μM) and apocynin (100 μM) for 30 min before LPS stimulation (1 μg/ml LPS for BV2 cells and 100 ng/ml for primary microglia), and the plates were incubated at 37° C. After 24 hr at 37° C., 100 μl of supernatant were removed and placed into a new 96 well plate, to which 100 μl of Griess reagent were added. The plate was shaken on a plate shaker for 10 min before being read in a plate reader at 540 nm.
This example generally followed the cell culture, treatment, and analysis steps of Example 4 above.
Diapocynin diacetate (diapodiacetate or diapo diace) suppresses LPS-induced NOS-2 in BV2 microglial cells (FIG. 21). BV-2 cells were plated in 96 well plates, 40,000 cells per well, and treated in 150 μl of RPMI containing 2% heat inactivated FBS and penicillin/streptomycin. Diapo diacetate was used on the cells as a 30 min pretreatment, then LPS (1 μg/ml) was added. All treatments were allowed to incubate at 37° C. for 24 hr, starting from the addition of LPS. One hundred microliter aliquots of supernatant from each well were combined with 100 μl of Griess reagent (Sigma) in a 96-well plate and allowed to shake for 10 minutes before being read on the plate reader. The percent nitrite level for the treatments compared to the control was graphed.

[3] = tested on: TNF-α; test: LPS-induced TNF-α release in primary microglia, LUMINEX immunoassay; type: cell-based, mouse; conditions: apocynin 100 μM, LPS 24 hr
Method: (§1) Primary microglia were obtained from 1-2 day old C57/b16 mouse pups. Upon collection, whole brains were kept in ice-cold DMEM-F12 medium containing 10% FBS, 1× sodium pyruvate, 1× NEAAs, 100 units pen/strep, and Q. After collection, the brains were placed in 0.25% trypsin-EDTA and incubated at 37° C., with gentle shaking every 5-10 min. After 30 min, the trypsin was removed, and the brains are washed in warmed medium twice. After washing, medium was added to the brains, and the brains were homogenized using gentle pipetting, starting with a 25 ml pipette and moving to smaller pipette tips as the brains were broken up. When the brains were sufficiently homogenized to a single-cell suspension, they were filtered with a 70 μm nylon filter, which allowed microglia and astrocytes to be collected. The resultant cell suspension was plated in T-75 flasks and allowed to grow for 12-14 days at 37° C., 5% CO2. […]
(§2) Cytokine levels of BV2 and microglial cells treated with diapocynin were determined by LUMINEX® multiplex immunoassay. […]
(§3) Cytokine standards and controls were adjusted to 40 μl volume and the LUMINEX® Samples were run on a LUMINEX® 200 Total System and analyzed with Multiplex Analysis—LUMINEX® Software (Invitrogen, Carlsbad, Calif.).

[4] = tested on: G93A mice; conditions: apocynin 300 mg/kg; cited from earlier work
[5] = tested on: IL-10; test: LPS-induced IL-10 release in primary microglia, LUMINEX immunoassay; type: cell-based, mouse; conditions: apocynin 100 μM, LPS 24 hr
Method: as §1, §2, §3

[6] = tested on: IL-12; test: LPS-induced IL-12 release in primary microglia, LUMINEX immunoassay; type: cell-based, mouse; conditions: apocynin 100 μM, LPS 24 hr
Method: as §1, §2, §3

[7] = tested on: IL-1β; test: LPS-induced IL-1β release in primary microglia, LUMINEX immunoassay; type: cell-based, mouse; conditions: apocynin 100 μM, LPS 24 hr
Method: as §1, §2, §3

[8] = Mito-apocynin 3 mg/kg oral gavage, sacrifice 7 days after last MPTP dose

COc1cc(C(=O)NCC[P+](c2ccccc2)(c2ccccc2)c2ccccc2)ccc1O.[Br-] [Mito-apocynin]
protection against subchronic MPTP-induced depletion of striatal dopac levels [1, 8]: almost completely protected
protection against subchronic MPTP-induced depletion of striatal dopamine levels [1, 8]: almost completely protected

COc1cc(C(C)=O)ccc1O [apocynin, Apocynin, reference compound]
EC50 ([2]; Mus musculus, BV-2 cells, LPS 1 μg/ml, non-linear regression of dose response curve, read-out: EC50, block of LPS-induced iNOS activation (nitrite level)): 61.3 µM
protection against subchronic MPTP-induced depletion of striatal dopac levels ([1]; apocynin 20 mg/kg oral gavage): not
protection against subchronic MPTP-induced depletion of striatal dopamine levels ([1]; apocynin 20 mg/kg oral gavage): not
effect on striatal neurotransmitters (dopamine, dopac) ([1]; apocynin at doses lower than 20 mg/kg, oral gavage): not effective
blocking LPS-induced release of TNF-α [3]: also effective
lifespan of G93A mice [4]: markedly enhanced
blocking LPS-induced release of IL-10 [5]: also effective
blocking LPS-induced release of IL-12 [6]: also effective
blocking LPS-induced release of IL-1β [7]: also effective

Diapocynin diacetate
LPS-induced NOS-2 (percent nitrite level compared to control) ([2]; BV2 cells, LPS 1 μg/ml 24 hr): suppresses
